Measured values from ChEMBL document CHEMBL4400540, “Structure-based design, synthesis and biological evaluation of a novel series of isoquinolone and pyrazolo[4,3-c]pyridine inhibitors of fascin 1 as potential anti-metastatic agents” (Bioorg Med Chem Lett, 2019).
Converted amounts (≈) assume the structure as drawn.

Assays:
[1] = biological target: T1, Fascin (Homo sapiens, UniProt Q16658)
[2] = biological target: T1, Fascin; remark: listed apart in the source
[3] = biological target: T1, Fascin; remark: listed apart in the source
[4] = Solubility of compound by turbidimetric method; assay type: physicochemical
[5] = Lipophilicity, log D of the compound at pH 7.4; assay type: physicochemical; conditions: buffer
[6] = Apparent permeability of the compound across apical side to basolateral side in human Caco2 cells; assay type: ADME, cell-based; conditions: caco-2
[7] = Efflux ratio of apparent permeability of the compound in human Caco2 cells; assay type: ADME, cell-based; conditions: caco-2
[8] = Intrinsic clearance in mouse microsomes assessed per mg protein; assay type: ADME, Microsome
[9] = Intrinsic clearance in human microsomes assessed per mg protein; assay type: ADME, Microsome
[10] = biological target: Cytochrome P450 3A4 (Homo sapiens, UniProt P08684); test: Inhibition of CYP3A4 (unknown origin); assay type: ADME
Chain of Cytochrome P450 3A4 (P08684 whole entry): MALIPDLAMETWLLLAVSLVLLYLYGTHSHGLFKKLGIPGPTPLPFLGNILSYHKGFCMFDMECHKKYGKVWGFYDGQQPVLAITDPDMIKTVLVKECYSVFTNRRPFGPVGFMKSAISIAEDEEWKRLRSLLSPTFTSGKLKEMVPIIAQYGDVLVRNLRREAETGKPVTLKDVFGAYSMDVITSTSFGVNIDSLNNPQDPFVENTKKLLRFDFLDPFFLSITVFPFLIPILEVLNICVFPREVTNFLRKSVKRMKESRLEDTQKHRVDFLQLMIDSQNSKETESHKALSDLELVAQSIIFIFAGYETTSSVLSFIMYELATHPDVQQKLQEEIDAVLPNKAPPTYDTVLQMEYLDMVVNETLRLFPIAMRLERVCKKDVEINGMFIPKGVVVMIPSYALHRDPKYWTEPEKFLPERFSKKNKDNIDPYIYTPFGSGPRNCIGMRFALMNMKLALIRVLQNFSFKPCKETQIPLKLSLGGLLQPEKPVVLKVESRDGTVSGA

[11] = biological target: Cytochrome P450 2D6 (Homo sapiens, UniProt P10635); test: Inhibition of CYP2D6 (unknown origin); assay type: ADME
Chain of Cytochrome P450 2D6 (P10635 whole entry): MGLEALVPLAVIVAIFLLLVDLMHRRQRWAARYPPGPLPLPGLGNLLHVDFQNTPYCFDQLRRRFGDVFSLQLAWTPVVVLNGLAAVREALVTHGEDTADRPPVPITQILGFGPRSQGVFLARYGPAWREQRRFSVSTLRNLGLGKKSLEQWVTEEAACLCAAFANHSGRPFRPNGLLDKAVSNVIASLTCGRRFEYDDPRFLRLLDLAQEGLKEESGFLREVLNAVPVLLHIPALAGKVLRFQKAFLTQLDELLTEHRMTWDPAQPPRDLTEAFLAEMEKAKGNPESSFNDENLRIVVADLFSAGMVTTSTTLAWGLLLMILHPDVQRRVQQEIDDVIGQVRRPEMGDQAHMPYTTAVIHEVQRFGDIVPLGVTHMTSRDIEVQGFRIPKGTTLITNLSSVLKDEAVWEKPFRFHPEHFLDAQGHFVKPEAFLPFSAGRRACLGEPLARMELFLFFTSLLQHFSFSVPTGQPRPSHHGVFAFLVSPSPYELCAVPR

[12] = biological target: Cytochrome P450 2C19 (Homo sapiens, UniProt P33261); test: Inhibition of CYP2C19 (unknown origin); assay type: ADME
Chain of Cytochrome P450 2C19 (P33261 whole entry): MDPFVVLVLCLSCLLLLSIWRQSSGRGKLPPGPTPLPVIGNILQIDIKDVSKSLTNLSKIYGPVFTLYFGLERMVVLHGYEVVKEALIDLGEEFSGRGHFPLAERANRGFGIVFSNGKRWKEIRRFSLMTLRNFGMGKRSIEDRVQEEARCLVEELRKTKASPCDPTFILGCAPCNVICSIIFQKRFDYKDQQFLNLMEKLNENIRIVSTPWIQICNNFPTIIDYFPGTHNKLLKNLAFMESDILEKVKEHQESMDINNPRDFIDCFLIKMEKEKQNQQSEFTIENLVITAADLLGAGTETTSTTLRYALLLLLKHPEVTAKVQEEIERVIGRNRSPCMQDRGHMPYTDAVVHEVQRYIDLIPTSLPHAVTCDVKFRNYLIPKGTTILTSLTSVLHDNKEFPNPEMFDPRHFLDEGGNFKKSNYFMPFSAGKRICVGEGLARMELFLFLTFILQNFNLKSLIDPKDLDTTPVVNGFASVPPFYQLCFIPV

[13] = biological target: Cytochrome P450 2C9 (Homo sapiens, UniProt P11712); test: Inhibition of CYP2C9 (unknown origin); assay type: ADME
Chain of Cytochrome P450 2C9 (P11712 whole entry): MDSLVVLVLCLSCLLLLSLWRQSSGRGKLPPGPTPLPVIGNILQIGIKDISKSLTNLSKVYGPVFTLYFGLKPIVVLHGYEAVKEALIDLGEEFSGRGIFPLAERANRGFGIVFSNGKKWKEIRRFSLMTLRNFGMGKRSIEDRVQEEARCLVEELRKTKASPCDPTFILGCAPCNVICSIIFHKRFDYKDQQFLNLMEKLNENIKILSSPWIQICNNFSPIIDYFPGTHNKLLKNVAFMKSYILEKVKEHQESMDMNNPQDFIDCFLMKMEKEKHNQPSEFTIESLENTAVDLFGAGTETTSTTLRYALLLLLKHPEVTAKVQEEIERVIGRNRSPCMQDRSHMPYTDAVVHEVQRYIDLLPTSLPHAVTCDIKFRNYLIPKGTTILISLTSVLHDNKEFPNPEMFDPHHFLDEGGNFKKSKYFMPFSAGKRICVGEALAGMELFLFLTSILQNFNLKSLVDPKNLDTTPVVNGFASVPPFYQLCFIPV

[14] = biological target: Voltage-gated inwardly rectifying potassium channel KCNH2 (Homo sapiens, UniProt Q12809); test: Inhibition of human ERG
Chain of Voltage-gated inwardly rectifying potassium channel KCNH2 (Q12809 whole entry): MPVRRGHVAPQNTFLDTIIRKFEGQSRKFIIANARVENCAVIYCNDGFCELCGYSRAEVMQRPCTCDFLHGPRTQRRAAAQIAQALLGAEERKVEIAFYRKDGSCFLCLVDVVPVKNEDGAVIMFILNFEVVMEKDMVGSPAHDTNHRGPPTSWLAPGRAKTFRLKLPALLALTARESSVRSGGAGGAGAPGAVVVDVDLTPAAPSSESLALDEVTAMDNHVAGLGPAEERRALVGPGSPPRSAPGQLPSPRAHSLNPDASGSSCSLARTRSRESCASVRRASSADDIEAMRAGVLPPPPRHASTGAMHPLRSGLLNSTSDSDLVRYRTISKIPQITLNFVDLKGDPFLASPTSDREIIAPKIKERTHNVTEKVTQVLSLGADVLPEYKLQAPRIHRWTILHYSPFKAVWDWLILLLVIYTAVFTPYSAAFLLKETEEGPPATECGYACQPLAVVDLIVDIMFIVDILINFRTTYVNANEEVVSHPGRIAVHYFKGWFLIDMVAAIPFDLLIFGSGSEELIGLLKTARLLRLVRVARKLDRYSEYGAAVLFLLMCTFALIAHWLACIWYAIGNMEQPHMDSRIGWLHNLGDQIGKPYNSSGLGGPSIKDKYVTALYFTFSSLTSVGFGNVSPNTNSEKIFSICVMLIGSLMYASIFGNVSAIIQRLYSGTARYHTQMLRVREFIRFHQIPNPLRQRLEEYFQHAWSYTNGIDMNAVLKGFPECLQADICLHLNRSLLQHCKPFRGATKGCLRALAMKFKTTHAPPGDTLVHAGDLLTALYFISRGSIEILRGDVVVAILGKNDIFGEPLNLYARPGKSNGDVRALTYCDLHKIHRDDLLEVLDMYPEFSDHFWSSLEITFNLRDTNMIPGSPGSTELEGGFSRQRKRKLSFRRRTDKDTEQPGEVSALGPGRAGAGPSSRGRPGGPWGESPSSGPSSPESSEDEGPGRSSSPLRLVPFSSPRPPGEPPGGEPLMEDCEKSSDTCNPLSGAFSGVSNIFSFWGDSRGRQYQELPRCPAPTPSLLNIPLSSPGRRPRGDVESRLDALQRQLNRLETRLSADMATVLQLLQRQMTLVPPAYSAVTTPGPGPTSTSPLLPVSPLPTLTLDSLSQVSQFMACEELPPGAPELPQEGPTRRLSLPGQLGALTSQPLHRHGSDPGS

[15] = biological target: T1, Fascin; test: Binding affinity to fascin 1 (unknown origin) by SPR assay

Structure (SMILES)	Kd [1] [µM]	IC50 [2] [µM]	other results
O=C(Nc1cnn(C2CCNC2)c1)c1ccc(=O)n(Cc2ccc(Cl)c(Cl)c2)c1 (configuration not stated)	> 100	–	–
O=c1c2cnn(C3CCS(=O)(=O)C3)c2ncn1Cc1ccc(Cl)c(Cl)c1 (configuration not stated)	–	67.6	–
Cn1cc(NC(=O)c2cn(Cc3ccc(Cl)c(Cl)c3)c(=O)c3cccnc23)cn1	> 100	–	–
Cn1cc(NC(=O)c2cn(Cc3ccc(Cl)c(Cl)c3)c(=O)c3ccccc23)cn1	1.5	1.3	–
O=C(Nc1ccncc1)c1cn(Cc2ccc(Cl)c(Cl)c2)c(=O)c2cnn(C3CCNCC3)c12	0.09	0.24	Kd [3]: 0.05 µM; solubility kinetic [4]: 65 µM (≈ 32.3 µg/mL); logD [5]: 1.8; Papp [6]: 0.15 ×10⁻⁶ cm/s; Ratio [7]: 37.8; CL [8]: 11.8 µL/min; CL [9]: 6.4 µL/min; IC50 [10]: 7 µM; IC50 [11]: 1.6 µM; IC50 [12]: 22 µM; IC50 [13]: 5.9 µM; IC50 [14]: > 25 µM
O=C(Nc1ccncc1)c1cn(Cc2ccc(Cl)c(Cl)c2)c(=O)c2cnn(C3CCS(=O)(=O)C3)c12 (configuration not stated)	0.27	0.33	–
Cn1cc(NC(=O)c2cn(Cc3ccccc3)c(=O)c3ccccc23)cn1	29.3	67.9	–
O=c1c2cn[nH]c2ncn1Cc1ccc(Cl)c(Cl)c1	> 500	–	–
CN(c1cc2c(C(=O)Nc3cnn(C)c3)cn(Cc3ccc(Cl)c(Cl)c3)c(=O)c2cn1)S(C)(=O)=O	2	–	–
Cn1cc(NC(=O)c2cn(Cc3cccc(Cl)c3)c(=O)c3ccccc23)cn1	7.6	11.4	–
Cn1cc(NC(=O)c2cn(Cc3ccc(Cl)cc3)c(=O)c3ccccc23)cn1	2.7	4.6	–
Cn1cc(NC(=O)c2cn(Cc3ccc(Cl)c(Cl)c3)c(=O)c3cnc(N4CCNCC4)cc23)cn1	0.58	0.63	–
Cn1cc(NC(=O)c2cn(Cc3ccc(Cl)c(Cl)c3)c(=O)c3cnn(C4CCS(=O)(=O)C4)c23)cn1 (configuration not stated)	0.6	0.63	–
Nc1cc(C(=O)Nc2cnn(C3CCNC3)c2)cn(Cc2ccc(Cl)c(Cl)c2)c1=O (configuration not stated)	21	> 100	–
Cn1cc(NC(=O)c2cn(Cc3ccc(Cl)c(Cl)c3)c(=O)c3ncccc23)cn1	> 100	–	–
CC(=O)N(C)c1ccc(Cl)cc1Cl	–	–	Kd [15]: 92 µM
